The values that follow come from PubChem BioAssay AID192 (DTP/NCI, 2004).

The subject of this assay is BDF1 mice, B16 melanoma ip, median survival T/C. The assay is described as follows: NCI In Vivo Anticancer Drug Screen. Data for tumor model B16 Melanoma (intraperitoneal) in B6D2F1 (BDF1) mice. The settings on record: endpoint: median survival time, higher = longer survival. Put shortly: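 Vehicle-treated animals serve as the reference (C); treated animals (T) are scored for survival or tumor size after tumor transplantation.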

[1] abbreviates: dose: 1.56 mg/kg/injection, schedule: Q01DX009 (ip), vehicle: saline.

Where “and” joins values, the source holds several entries; their conditions need not be identical. Equal entries are not always repeated. Inconclusive results and toxic doses are left out.

In the case of `CCN(CC)CCCC(C)Nc1c2ccc(Cl)cc2nc2ccc(OC)cc12` (stereo not drawn), the T/C (dose: 8.0 mg/kg/injection, schedule: Q01DX009 (ip), vehicle: saline with Tween-80) is 94 % of control and 102 % of control; the T/C (dose: 8.0 mg/kg/injection, schedule: Q01DX009 (ip), vehicle: saline) is 100 % of control; the T/C (dose: 8.0 mg/kg/injection, schedule: Q01DX009 (ip), vehicle: suspension in saline) is 103 % of control; the T/C (dose: 16.0 mg/kg/injection, schedule: Q01DX009 (ip), vehicle: saline with Tween-80) is 88 % of control and 107 % of control; the T/C (dose: 16.0 mg/kg/injection, schedule: Q01DX009 (ip), vehicle: saline) is 102 % of control; the T/C (dose: 16.0 mg/kg/injection, schedule: Q01DX009 (ip), vehicle: suspension in saline) was 105 % of control. Moreover, the T/C is 96 % of control (dose: 20.0 mg/kg/injection, schedule: Q04DX003 (ip), vehicle: saline with Tween-80); 116 % of control and 118 % of control (dose: 32.0 mg/kg/injection, schedule: Q01DX009 (ip), vehicle: saline with Tween-80); 104 % of control (dose: 32.0 mg/kg/injection, schedule: Q01DX009 (ip), vehicle: saline); 107 % of control (dose: 32.0 mg/kg/injection, schedule: Q01DX009 (ip), vehicle: suspension in saline); 105 % of control (dose: 40.0 mg/kg/injection, schedule: Q04DX003 (ip), vehicle: saline with Tween-80); 101 % of control (dose: 80.0 mg/kg/injection, schedule: Q04DX003 (ip), vehicle: saline with Tween-80). Further, for the setting “dose: 128.0 mg/kg/injection, schedule: Q01DX009 (ip), vehicle: saline with Tween-80”, the T/C is 152 % of control.

For `CO[C@@]12[C@H](COC(N)=O)C3=C(C(=O)C(C)=C(N)C3=O)N1C[C@@H]1N[C@@H]12`, the T/C is 113 % of control (dose: 0.06 mg/kg/injection, schedule: Q01DX009 (ip), vehicle: Klucel (hydroxypropylcellulose) (HPC)); 99 % of control (dose: 0.1 mg/kg/injection, schedule: Q04DX003 (ip), vehicle: saline); 105 % of control (dose: 0.13 mg/kg/injection, schedule: Q01DX001 (ip), vehicle: clinical formulation); 114 % of control (dose: 0.13 mg/kg/injection, schedule: Q01DX009 (ip), vehicle: Klucel (hydroxypropylcellulose) (HPC)); 117 % of control (dose: 0.13 mg/kg/injection, schedule: Q01DX009 (ip), vehicle: saline); 113 % of control (dose: 0.2 mg/kg/injection, schedule: Q04DX003 (ip), vehicle: saline). Further, the T/C was 103 % of control (dose: 0.22 mg/kg/injection, schedule: Q01DX009 (ip), vehicle: saline); 114 % of control (dose: 0.25 mg/kg/injection, schedule: Q01DX001 (ip), vehicle: clinical formulation); 110 % of control (dose: 0.25 mg/kg/injection, schedule: Q01DX009 (ip), vehicle: Klucel (hydroxypropylcellulose) (HPC)); 103 % of control (dose: 0.25 mg/kg/injection, schedule: Q01DX009 (ip), vehicle: saline); 117 % of control (dose: 0.36 mg/kg/injection, schedule: Q01DX009 (ip), vehicle: saline); 123 % of control (dose: 0.5 mg/kg/injection, schedule: Q01DX001 (ip), vehicle: clinical formulation). Further, the T/C (dose: 0.5 mg/kg/injection, schedule: Q01DX009 (ip), vehicle: Klucel (hydroxypropylcellulose) (HPC)) is 113 % of control; the T/C (dose: 0.5 mg/kg/injection, schedule: Q01DX009 (ip), vehicle: saline) is 159 % of control; the T/C (dose: 0.54 mg/kg/injection, schedule: Q01DX009 (ip), vehicle: saline) was 154 % of control and 217 % of control; the T/C (dose: 0.54 mg/kg/injection, schedule: Q01DX010 (ip), vehicle: saline) is 114 % of control; the T/C (dose: 0.6 mg/kg/injection, schedule: Q01DX009 (ip), vehicle: saline) is 151 % of control; the T/C (dose: 0.9 mg/kg/injection, schedule: Q01DX010 (ip), vehicle: saline) was 107 % of control. The T/C was 152 % of control (dose: 1.0 mg/kg/injection, schedule: Q01DX007 (ip), vehicle: saline); 181 % of control and 189 % of control (dose: 1.0 mg/kg/injection, schedule: Q01DX009 (ip), vehicle: Klucel (hydroxypropylcellulose) (HPC)); 169 % of control (dose: 1.0 mg/kg/injection, schedule: Q01DX009 (ip), vehicle: saline sonified); 159 % of control (dose: 1.0 mg/kg/injection, schedule: Q04DX003 (ip), vehicle: clinical formulation); 101 % of control (dose: 1.5 mg/kg/injection, schedule: Q01DX010 (ip), vehicle: saline); 151 % of control (dose: 1.5 mg/kg/injection, schedule: Q04DX003 (ip), vehicle: clinical formulation). Besides, the T/C is 164 % of control (dose: 1.5 mg/kg/injection, schedule: Q04DX003 (ip), vehicle: saline); 172 % of control (dose: 1.6 mg/kg/injection, schedule: Q04DX003 (ip), vehicle: saline); 151 % of control (dose: 1.67 mg/kg/injection, schedule: Q01DX009 (ip), vehicle: saline); 153 % of control (dose: 2.0 mg/kg/injection, schedule: Q01DX001 (ip), vehicle: clinical formulation); 236 % of control (dose: 2.0 mg/kg/injection, schedule: Q04DX003 (ip), vehicle: clinical formulation); 34 % of control and 57 % of control (dose: 2.5 mg/kg/injection, schedule: Q01DX009 (ip), vehicle: saline). Further, the T/C by setting is: (dose: 2.5 mg/kg/injection, schedule: Q01DX010 (ip), vehicle: saline) 105 % of control; (dose: 3.0 mg/kg/injection, schedule: Q04DX003 (ip), vehicle: clinical formulation) 260 % of control; (dose: 3.0 mg/kg/injection, schedule: Q04DX003 (ip), vehicle: saline) 193 % of control; (dose: 3.2 mg/kg/injection, schedule: Q04DX003 (ip), vehicle: saline) 231 % of control; (dose: 4.0 mg/kg/injection, schedule: Q01DX007 (ip), vehicle: saline) 57 % of control.

In the case of `Nc1nc2c(ncn2C2OC(CO)C(O)C2O)c(=O)[nH]1.Nc1nc2c(ncn2C2OC(CO)C(O)C2O)c(=O)[nH]1.[NH2-].[NH2-].[Pt+2]` (stereo not drawn), the T/C runs as follows: (dose: 6.25 mg/kg/injection, schedule: Q01DX009 (ip), vehicle: water) 100 % of control and 108 % of control; (dose: 12.5 mg/kg/injection, schedule: Q01DX009 (ip), vehicle: water) 98 % of control and 114 % of control; (dose: 25.0 mg/kg/injection, schedule: Q01DX009 (ip), vehicle: water) 117 % of control; (dose: 50.0 mg/kg/injection, schedule: Q01DX009 (ip), vehicle: water) 109 % of control; (dose: 100.0 mg/kg/injection, schedule: Q01DX009 (ip), vehicle: water) 160 % of control; (dose: 200.0 mg/kg/injection, schedule: Q01DX009 (ip), vehicle: water) 151 % of control and 170 % of control.

Regarding `O=C(O)C(O)C(O)C1[O][Sb][O]C1CO` (stereo not drawn), the T/C is 96 % of control (dose: 5.0 mg/kg/injection, schedule: Q01DX009 (ip), vehicle: saline); 100 % of control (dose: 100.0 mg/kg/injection, schedule: Q01DX009 (ip), vehicle: saline); 88 % of control (dose: 200.0 mg/kg/injection, schedule: Q01DX009 (ip), vehicle: saline).

Take `O=CC(=O)c1ccc(O)cc1`: the T/C runs as follows: under setting [1], 105 % of control; (dose: 3.12 mg/kg/injection, schedule: Q01DX009 (ip), vehicle: saline) 97 % of control; (dose: 6.25 mg/kg/injection, schedule: Q01DX009 (ip), vehicle: saline) 106 % of control.

As for `CC(C)(C)c1ccc(C(=O)C2CC2)cc1`, the T/C by setting is: (dose: 25.0 mg/kg/injection, schedule: Q01DX009 (ip), vehicle: saline with Tween-80) 94 % of control; (dose: 50.0 mg/kg/injection, schedule: Q01DX009 (ip), vehicle: saline with Tween-80) 99 % of control; (dose: 100.0 mg/kg/injection, schedule: Q01DX009 (ip), vehicle: saline with Tween-80) 95 % of control.

On to `COc1ccccc1NC(=O)Nc1ccc(Nc2ccccc2)cc1`, for which the T/C reads like this: (dose: 100.0 mg/kg/injection, schedule: Q01DX009 (ip), vehicle: gum acacia) 109 % of control; (dose: 200.0 mg/kg/injection, schedule: Q01DX009 (ip), vehicle: gum acacia) 97 % of control.

Take `COc1cc2ccc3c4cc5c(cc4c[n+](C)c3c2cc1OC)OCO5`: the T/C (dose: 10.0 mg/kg/injection, schedule: Q01DX009 (ip), vehicle: Klucel (hydroxypropylcellulose) (HPC)) was 104 % of control.

Take `CC(=N\[O-])/C(C)=N/O.CC(=N\[O-])/C(C)=N/O.CC(=O)[O-].CC(=O)[O-].O.[Rh+2].[Rh+2]`: the T/C was 115 % of control under setting [1] and 115 % of control (dose: 25.0 mg/kg/injection, schedule: Q01DX009 (ip), vehicle: saline).
